The numbers were not newly measured in patent US8609668B2, “Substituted triazolo[1,5-A]pyrimidines as antiviral agents” (Philadelphia Health & Education Corporation, priority 2006, dated 2013), which cites them from elsewhere.

For the series, the system named is HBeAg secretion. Particulars: in vivo and in vitro.

For the molecule `O=c1oc2c(O)c(O)cc3c(=O)oc4c(O)c(O)cc1c4c23` [Ellagic acid], the “secretion of HBeAg” value is on record as “specifically inhibit secretion of HBeAg”.
